Values quoted from earlier work as cited in patent US10751291B2, “Nanoparticulate compositions comprising interferon gamma and losartan for immunotherapy” (Yale University, priority 2013, dated 2020).

Details: oral administration

CCCCc1nc(Cl)c(CO)n1Cc1ccc(-c2ccccc2-c2nn[nH]n2)cc1 [Losartan]
oral absorption: well absorbed
